{
  "source": "patent US12171835B2",
  "about": "“Furan-aspidospermine dimer or pharmaceutically acceptable salt thereof, and preparation method, use and pharmaceutical composition” (Kunming Inst. of Botany, Chinese Acad. of Sciences, priority 2021, dated 2024)",
  "key": {"[1]": {"system": "bone marrow-derived macrophages (BMMs)", "assay": "Activated immune test: ARG1 activity / M2 polarization in IL-4-stimulated BMMs", "format": "cell-based, mouse", "conditions": "for inhibition of the expression of arginase induced by IL-4 in macrophages: BMMs pretreated with drug (1 μM), IL-4 stimulation 12 h, absorbance at 540 nm, FIG. 1", "description": "Activated immune test: bone marrow-derived macrophages (BMMs), as primary cells isolated from bone marrow and subjected to induced culture that can well reflect functions of the macrophages, are commonly used cells to study the functions of the macrophages. A mouse femur bone marrow was isolated and cultured in a medium containing an mCSF factor for 6-7 d to obtain mature BMMs; stimulation with IL-4 for 12 h can induce polarization of the BMMs to an immunosuppressive M2 type with high expression of ARG1; after the ARG1 protein was extracted, arginine hydrolysis was conducted in vitro, and color development was further conducted by reacting α-isonitrosopropiophenone with a hydrolyzate urea; an absorbance was measured at a wavelength of 540 nm as a marker of an ARG1 activity. A specific process was as follows: cells were pretreated with drugs (1 μM) (including the CPLD, CPLL, TBYA, MDK, HMD, compounds 1-3 and compounds 5-7); IL-4 stimulation was conducted for 12 h, followed by washing with PBS, and cells were lysed with a lysis buffer containing a protease inhibitor, and a total cell protein was obtained; after adding […] to 0.4 mM Mn^2, the total cell protein was heated at 55° C. for 10 min to fully activate an arginase ARG1. 0.5 mM arginine was added for incubation at 37° C. for 1 h to 2 h to fully hydrolyze the arginine. An acid solution containing sulfuric acid and phosphoric acid was added to stop the reaction, a 9% α-isonitrosopropiophenone ethanol solution was added, followed by heating at 95° C. for 15 min to 30 min to develop color."}, "[2]": {"system": "bone marrow-derived macrophages (BMMs)", "assay": "Activated immune test: ARG1 activity / M2 polarization in IL-4-stimulated BMMs", "format": "cell-based, mouse", "conditions": "FIG. 1C, FIG. 2"}, "[3]": {"system": "CD8+ T cells and other immune cells in the tumor", "assay": "FACS analysis / intracellular staining of immune cells in the tumors", "format": "in vivo, mouse", "from_the_text": "Validation of improving and enhancing CD8^+ T cell function: through FACS analysis, the test results of compound 1 are shown in FIG. 3. […] In addition, the compound 1 is able to down-regulate a proportion of CD206^+ macrophages (FIG. 4).\n(§1) Further immunofluorescence staining experiments also find that the CPLD can increase the proportion of CD8 T cells and promote the expression of Granzyme B (L). Further, mice were continuously injected with anti-CD8 antibodies to delete CD8+ T cells in the mice, to construct a melanoma model, followed by investigation of an anti-tumor activity of the compounds."}, "[4]": {"system": "CD8 T cells", "assay": "immunofluorescence staining of tumors", "format": "in vivo, mouse", "conditions": "FIG. 5L", "from_the_text": "as §1"}, "[5]": {"system": "melanoma", "assay": "CD8+ T cell-depleted melanoma model (anti-CD8 antibodies)", "format": "in vivo, mice", "conditions": "FIG. 5M to N", "from_the_text": "as §1"}, "[6]": {"system": "tumor", "assay": "nude mouse tumor model (CPLD)", "format": "in vivo", "conditions": "FIG. 5M to N"}},
  "data": [
    {"compound": "19′-hydroxymelodinineK [HMD]", "values": [
      {"measurement": "inhibition of the expression of arginase induced by IL-4 in macrophages", "setting": "[1]", "value": "significantly inhibit"},
      {"measurement": "inhibition of M2 polarization of the macrophages, concentration dependence", "setting": "[2]", "value": "inhibit M2 polarization of the macrophages in a concentration-dependent manner"}
    ]},
    {"compound": "CC[C@@]12C=CCN3CC[C@]4(C(=C(C(=O)OC)C1)Nc1cc5c(cc14)[C@H]1[C@@H](O5)[C@H](O)[C@]4(CC)CC(C(=O)OC)=C5Nc6c(cc(O)c(OC)c6OC)[C@@]56CCN1[C@H]46)[C@H]32", "note": "[CPLD, conophyllidine]", "values": [
      {"measurement": "inhibition of the expression of arginase induced by IL-4 in macrophages", "setting": "[1]", "value": "significantly inhibit"},
      {"measurement": "effect on CD4 T cells", "setting": "[3]; FACS analysis", "value": "no significant effect"},
      {"measurement": "effect on Treg cells (proportion)", "setting": "[3]; FACS analysis", "value": "no effect"},
      {"measurement": "proportion of CD8+ T cells in the tumor", "setting": "[3]; FACS analysis", "value": "significantly increase"},
      {"measurement": "expression of Granzyme B in CD8+ T cells", "setting": "[3]; intracellular staining", "value": "enhance"},
      {"measurement": "expression of IFNγ in CD8+ T cells", "setting": "[3]; intracellular staining", "value": "enhance"},
      {"measurement": "expression of TNFα in CD8+ T cells", "setting": "[3]; intracellular staining", "value": "enhance"},
      {"measurement": "function of the CD8+ T cells", "setting": "[3]; intracellular staining", "value": "promote"},
      {"measurement": "expression of Granzyme B", "setting": "[4]", "value": "promote"},
      {"measurement": "proportion of CD8 T cells", "setting": "[4]", "value": "increase"},
      {"measurement": "anti-tumor effect", "setting": "[5]", "value": "significantly reduced"},
      {"measurement": "anti-tumor effect", "setting": "[6]", "value": "significantly reduced"},
      {"measurement": "inhibition of M2 polarization of the macrophages, concentration dependence", "setting": "[2]", "value": "inhibit M2 polarization of the macrophages in a concentration-dependent manner"}
    ]},
    {"compound": "CC[C@@]12CC(C(=O)OC)=C3Nc4cc5c(cc4[C@@]34CCN(C[C@H]3O[C@H]31)[C@@H]24)[C@@H]1[C@H](O5)[C@@H](O)[C@@]2(CC)CC(C(=O)OC)=C3Nc4c(cc(O)c(OC)c4OC)[C@@]34CCN1[C@@H]24", "note": "[CPLL, conophylline]", "values": [
      {"measurement": "inhibition of the expression of arginase induced by IL-4 in macrophages", "setting": "[1]", "value": "significantly inhibit"},
      {"measurement": "inhibition of M2 polarization of the macrophages, concentration dependence", "setting": "[2]", "value": "inhibit M2 polarization of the macrophages in a concentration-dependent manner"}
    ]},
    {"compound": "Ibogabisindole [reference compound]", "values": [
      {"measurement": "activity of inhibiting M2 polarization in macrophages", "setting": "[1]; comparison substances lacking the furan-aspidospermine dimer skeleton", "value": "neither the furan-ringed aspidospermine, Corynantheine, nor the furan-ringed aspidospermine, Ibogabisindole, have the activity"}
    ]},
    {"compound": "melodinine K [MDK]", "values": [
      {"measurement": "inhibition of the expression of arginase induced by IL-4 in macrophages", "setting": "[1]", "value": "significantly inhibit"},
      {"measurement": "inhibition of M2 polarization of the macrophages, concentration dependence", "setting": "[2]", "value": "inhibit M2 polarization of the macrophages in a concentration-dependent manner"}
    ]},
    {"compound": "taberyunine A [TBYA]", "values": [
      {"measurement": "inhibition of the expression of arginase induced by IL-4 in macrophages", "setting": "[1]", "value": "significantly inhibit"},
      {"measurement": "inhibition of M2 polarization of the macrophages, concentration dependence", "setting": "[2]", "value": "inhibit M2 polarization of the macrophages in a concentration-dependent manner"}
    ]}
  ]
}
